Read-outs that look alike come from different tables or passages of the source.
What was measured:
CRTH2 = CRTH2 (Mus musculus, UniProt Q9Z2J6); settings: intratracheal bleomycin, 30 mg/kg IP every other day, Day 5 to Day 14; for bleomycin-induced collagen accumulation: Sircol on Day 14 (FIG. 6D)
Description: Sex-matched, 8-wk-old wild-type (WT), pale ear, CHI3L1^−/−, and CHI3L1Tgmice (≥5 mice/group) were exposed to a single bleomycin injection (1.25 U/kg; Teva Parenteral Medicines, Irvine, Calif.) via intratracheal administration. Mice were sacrificed and evaluated at Day 7 and Day 14 to examine apoptosis and fibrosis, respectively.
Animals were anesthetized, median sternotomy was performed, and right heart perfusion completed with calcium and magnesium-free PBS. The heart and lungs were then removed. The right lung was frozen in liquid nitrogen and stored at −80° C. until used. Collagen content was determined by quantifying total soluble collagen using the Sircol Collagen Assay kit (Biocolor, Accurate Chemical & Scientific Co., Westbury, N.Y.) according to the manufacturer's instructions.
Sex-matched, 8-wk-old wild-type (WT), pale ear, and CHI3L1 Tg mice (≥5 mice/group) were exposed to a single bleomycin injection (1.25 U/kg; Teva Parenteral Medicines, Irvine, Calif.) via intratracheal administration. Mice were treated with 30 mg/kg CAY10471 (Cayman Chemical) (IP, every other day) or DMSO control from Day 5 to Day 14.

[1] = system: Primary Type II alveolar epithelial cells; experiment: Bleomycin-induced apoptosis (TUNEL) in primary Type II alveolar epithelial cells; type: cell-based, mouse; settings: 500 ng/ml pre-treatment, 100 μg/ml bleomycin (FIG. 5A)
Description: End labeling of exposed 3′-OH ends of DNA fragments in paraffin-embedded tissue was undertaken with the TUNEL in situ cell death detection kit AP (Roche Diagnostics). SPC co-staining was performed using a goat anti-mouse SPC primary antibody (Santa Cruz) and Alexa Fluor 594 secondary antibody. After staining, 8-10 random pictures were obtained from each lung, and a minimum of 300 cells were visually evaluated in each section. The labeled cells were expressed as a percentage of total nuclei.
WT and pale ear mouse lungs were digested with collagenase and DNase I. The resulting suspension was filtered through Falcon cell strainers, and the cells were negatively selected with anti-CD16/CD32 antibodies. Cells were maintained in BEGM+5% charcoal-stripped FBS and 10 ng/ml KGF. A549 cells were obtained from the American Type Culture Collection (ATCC, Manassas, Va.) and maintained in DMEM+2 mM glutamine+10% FBS. Primary Type II Cells were pre-treated with 500 ng/ml recombinant CHI3L1, transfected with IL-13Rα2 construct, and stimulated with 100 μg/ml bleomycin. In A549 cells, HPS1, HPS4, Rab32, and Rab38 siRNA were co-transfected with IL-13Rα2 construct, and stimulated with 100 μg/ml bleomycin. Cells were cytospun onto slides. Immunofluorescence and/or TUNEL staining were performed as previously described.

Sequence of CRTH2 (Q9Z2J6 whole entry): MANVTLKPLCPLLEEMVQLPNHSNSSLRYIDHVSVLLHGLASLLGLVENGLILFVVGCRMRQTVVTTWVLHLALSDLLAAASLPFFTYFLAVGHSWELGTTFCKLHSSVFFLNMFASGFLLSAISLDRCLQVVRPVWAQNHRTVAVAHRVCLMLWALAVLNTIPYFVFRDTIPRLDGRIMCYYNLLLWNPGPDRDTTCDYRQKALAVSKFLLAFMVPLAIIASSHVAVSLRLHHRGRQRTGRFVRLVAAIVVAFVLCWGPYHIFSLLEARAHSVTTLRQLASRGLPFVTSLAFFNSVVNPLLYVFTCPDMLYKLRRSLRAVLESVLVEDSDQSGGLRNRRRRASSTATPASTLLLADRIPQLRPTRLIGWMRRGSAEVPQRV

Compound	exaggerated fibrosis caused by CHI3L1 transgene activation during fibroproliferative repair (CRTH2; CHI3L1 Tg mice, Sircol on Day 14 (FIG. 6E))	bleomycin-induced collagen accumulation (CRTH2; HPS1 null (pale ear) mice)	bleomycin-induced collagen accumulation (CRTH2; WT mice)	bleomycin-induced apoptosis (TUNEL-positive cells) ([1]; cells from WT mice)	bleomycin-induced apoptosis (TUNEL-positive cells) ([1]; cells from pale ear mice)
CN(C1CCc2c(c3ccccc3n2CC(=O)O)C1)S(=O)(=O)c1ccc(F)cc1 (centres unmarked) [CAY10471]	abrogated	decreased	decreased		
Recombinant CHI3L1: recombinant chitinase 3-like-1 protein				powerful inhibitor	did not decrease
